Assays:
Type in all cases: cell-based
EGFR L858R (Ba/F3 cells) [1] = biological target: T1, EGFR L858R (Ba/F3 cells) (Homo sapiens, UniProt P00533, L858R); test: Inhibitor activity on EGFR-dependent cell growth (CellTiter-Glo, 72 h), Ba/F3 EGFR L858R; settings: read-out: BaF3 L858R IC50
T1 construct: expressed in transfected cells; host or cells: Ba/F3 (murine pro-B cells), retroviral transduction, puromycin selection, IL3-independent pool
Excerpt: (§1) Example A. Inhibitor Activity on EGFR-Dependent Cell Growth
(§2) Cell lines are generated by transducing Ba/F3 cells with retroviruses containing vectors with EGFR WT, EGFR L858R, EGFR exon 19del, EGFR L858R/C797S, EGFR exon 20 NPG Ins D770_N771, EGFR exon 20 ASV Ins V769_D770, EGFR exon 20 SVD Ins D770_N771, or EGFR exon 20 FQEA Ins A763_V764 genes and a puromycin selection marker. Transduced cells are selected with puromycin for 7 days and are then be transferred into culture media without Interleukin 3 (IL3). EGFR WT cells are maintained with supplemental EGF. Surviving cells are confirmed to express EGFR by Western blot and maintained as a pool. The IC50 date were included in Table 6 and Table 7.
(§3) 1.1 Cells are harvested from flask into cell culture medium and the cell number counted.
(§4) 1.2 Cells are diluted with culture medium to the desired density and 40 μL of cell suspension is added into each well of 384-well cell culture plate and the seeding density is 800 (FQEA, exon 19del), 600 (WT, NPG, L858R/C797S), or 400 (ASV, SVD, L858R) cells/well.
(§5) 2 Compound Preparation and Treatment
(§6) 2.1 Test compounds are dissolved to 10 mM in a DMSO stock solution. 45 μL of stock solution is transferred to a 384 polypropylene plate (pp-plate). Perform 3-fold, 10-point dilution via transferring 15 μL compound into 30 μL DMSO using a TECAN (EVO200) liquid handler.
(§7) 2.2 Spin plates at room temperature at 1,000 RPM for 1 minute.
(§8) 2.3 Transfer 120 nL of diluted compound from compound source plate into the cell plate.
(§9) 2.4 After compound treatment for 72 hours, perform CTG detection for compound treatment plates as described in “Detection” section.
(§10) 3.1 Plates are removed from incubators and equilibrated at room temperature for 15 minutes.
(§11) 3.2 Thaw the CellTiter Glo reagents and allow to equilibrate to room temperature before the experiment.
(§12) 3.3 Add 40 μL of CellTiter-Glo reagent into each well (at 1:1 to culture medium). Then place the plates at room temperature for 30 min followed by reading on EnVision.
(§13) 4.1 Inhibition activity is calculated following the formula below:
(§14) % Inhibition=100×(LumHC−LumSample)/(LumHC−LumLC) • where HC is obtained from cells treated with 0.1% DMSO only; and LC is obtained from culture medium only.
(§15) 4.2 2. Calculate the IC50 by fitting the Curve using Xlfit (v5.3.1.3), equation 201.
(§16) Y=Bottom+(Top−Bottom)/(1+10^((Log IC50−X)*HillSlope))

[2] = biological target: T2, EGFR exon 19del (Ba/F3 cells) (Homo sapiens, UniProt P00533); test: Inhibitor activity on EGFR-dependent cell growth (CellTiter-Glo, 72 h), Ba/F3 EGFR exon 19del; settings: Ba/F3 EGFR exon 19del cell growth, read-out: BaF3 Del19 IC50
T2 sequence (P00533 with tags, fused parts or gaps DEL746-750): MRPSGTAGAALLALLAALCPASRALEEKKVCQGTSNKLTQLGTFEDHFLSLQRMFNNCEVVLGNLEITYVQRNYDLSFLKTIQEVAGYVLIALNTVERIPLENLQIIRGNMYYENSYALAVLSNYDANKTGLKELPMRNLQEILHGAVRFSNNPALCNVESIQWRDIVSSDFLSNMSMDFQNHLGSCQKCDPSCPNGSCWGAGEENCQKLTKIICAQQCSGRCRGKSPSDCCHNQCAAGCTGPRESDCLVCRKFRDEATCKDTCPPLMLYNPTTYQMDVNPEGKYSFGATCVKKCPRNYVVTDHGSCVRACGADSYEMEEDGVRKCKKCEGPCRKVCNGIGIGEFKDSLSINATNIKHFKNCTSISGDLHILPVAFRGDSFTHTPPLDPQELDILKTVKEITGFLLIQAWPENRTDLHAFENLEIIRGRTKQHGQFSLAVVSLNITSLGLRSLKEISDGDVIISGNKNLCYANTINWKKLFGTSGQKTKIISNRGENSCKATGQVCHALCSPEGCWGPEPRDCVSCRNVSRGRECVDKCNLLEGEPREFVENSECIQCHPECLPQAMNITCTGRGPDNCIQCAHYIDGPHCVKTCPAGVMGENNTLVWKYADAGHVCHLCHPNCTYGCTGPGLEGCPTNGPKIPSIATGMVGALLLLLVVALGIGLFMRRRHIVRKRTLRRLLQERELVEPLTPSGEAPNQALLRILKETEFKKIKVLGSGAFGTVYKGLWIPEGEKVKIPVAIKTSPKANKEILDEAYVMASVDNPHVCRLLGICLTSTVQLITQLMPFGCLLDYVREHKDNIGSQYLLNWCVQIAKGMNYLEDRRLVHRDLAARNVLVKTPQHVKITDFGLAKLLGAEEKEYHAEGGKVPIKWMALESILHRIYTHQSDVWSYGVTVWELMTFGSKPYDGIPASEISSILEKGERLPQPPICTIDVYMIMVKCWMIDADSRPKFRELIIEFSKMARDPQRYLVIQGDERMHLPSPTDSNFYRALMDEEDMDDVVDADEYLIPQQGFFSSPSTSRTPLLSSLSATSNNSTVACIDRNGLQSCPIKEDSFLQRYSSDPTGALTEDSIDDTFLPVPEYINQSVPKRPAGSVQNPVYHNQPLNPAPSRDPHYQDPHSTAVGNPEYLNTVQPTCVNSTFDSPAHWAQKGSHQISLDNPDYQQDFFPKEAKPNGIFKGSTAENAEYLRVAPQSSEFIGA
Excerpt: as §1, §2, §3, §4, §5, §6, §7, §8, §9, §10, §11, §12, §13, §14, §15, §16

EGFR WT (Ba/F3 cells) = biological target: T3, EGFR WT (Ba/F3 cells) (Homo sapiens, UniProt P00533); test: Inhibitor activity on EGFR-dependent cell growth (CellTiter-Glo, 72 h), Ba/F3 EGFR WT; settings: read-out: BaF3 WT IC50
T3 construct: expressed in transfected cells; host or cells: Ba/F3 (murine pro-B cells), retroviral transduction, puromycin selection, maintained with EGF
How it was run: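 This growth assay used Ba/F3 cells that depend on wild-type EGFR and are kept in EGF without IL3. Compounds were made up as 10 mM DMSO stocks and diluted 3-fold over 10 points. 120 nL went onto 600 cells/well. After 72 hours, 40 μL CellTiter-Glo was added and luminescence read on EnVision after 30 min.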

[3] = biological target: T4, EGFR exon 20 NPG Ins D770_N771 (Ba/F3 cells) (Homo sapiens, UniProt P00533, INS770NPG); test: Inhibitor activity on EGFR-dependent cell growth (CellTiter-Glo, 72 h), Ba/F3 EGFR exon 20 NPG Ins; settings: read-out: BaF3 NPG IC50
T4 construct: expressed in transfected cells; host or cells: Ba/F3 (murine pro-B cells), retroviral transduction, puromycin selection, IL3-independent pool
How it was run: (§17)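 IC50s derive from a sigmoidal dose–response fit of CellTiter-Glo signal. The signal was normalised between […]-treated cells and cell-free medium. Ba/F3 mutant-EGFR cells, seeded at 400–800/well depending on the line, had 72 h of exposure to a 10-point, 3-fold compound series.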

[4] = biological target: T5, EGFR exon 20 FQEA Ins A763_V764 (Ba/F3 cells) (Homo sapiens, UniProt P00533, INS763FQEA); test: Inhibitor activity on EGFR-dependent cell growth (CellTiter-Glo, 72 h), Ba/F3 EGFR exon 20 FQEA Ins; settings: read-out: BaF3 FQEA IC50
T5 construct: expressed in transfected cells; host or cells: Ba/F3 (murine pro-B cells), retroviral transduction, puromycin selection, IL3-independent pool
T5 sequence (P00533 with tags, fused parts or gaps INS763FQEA): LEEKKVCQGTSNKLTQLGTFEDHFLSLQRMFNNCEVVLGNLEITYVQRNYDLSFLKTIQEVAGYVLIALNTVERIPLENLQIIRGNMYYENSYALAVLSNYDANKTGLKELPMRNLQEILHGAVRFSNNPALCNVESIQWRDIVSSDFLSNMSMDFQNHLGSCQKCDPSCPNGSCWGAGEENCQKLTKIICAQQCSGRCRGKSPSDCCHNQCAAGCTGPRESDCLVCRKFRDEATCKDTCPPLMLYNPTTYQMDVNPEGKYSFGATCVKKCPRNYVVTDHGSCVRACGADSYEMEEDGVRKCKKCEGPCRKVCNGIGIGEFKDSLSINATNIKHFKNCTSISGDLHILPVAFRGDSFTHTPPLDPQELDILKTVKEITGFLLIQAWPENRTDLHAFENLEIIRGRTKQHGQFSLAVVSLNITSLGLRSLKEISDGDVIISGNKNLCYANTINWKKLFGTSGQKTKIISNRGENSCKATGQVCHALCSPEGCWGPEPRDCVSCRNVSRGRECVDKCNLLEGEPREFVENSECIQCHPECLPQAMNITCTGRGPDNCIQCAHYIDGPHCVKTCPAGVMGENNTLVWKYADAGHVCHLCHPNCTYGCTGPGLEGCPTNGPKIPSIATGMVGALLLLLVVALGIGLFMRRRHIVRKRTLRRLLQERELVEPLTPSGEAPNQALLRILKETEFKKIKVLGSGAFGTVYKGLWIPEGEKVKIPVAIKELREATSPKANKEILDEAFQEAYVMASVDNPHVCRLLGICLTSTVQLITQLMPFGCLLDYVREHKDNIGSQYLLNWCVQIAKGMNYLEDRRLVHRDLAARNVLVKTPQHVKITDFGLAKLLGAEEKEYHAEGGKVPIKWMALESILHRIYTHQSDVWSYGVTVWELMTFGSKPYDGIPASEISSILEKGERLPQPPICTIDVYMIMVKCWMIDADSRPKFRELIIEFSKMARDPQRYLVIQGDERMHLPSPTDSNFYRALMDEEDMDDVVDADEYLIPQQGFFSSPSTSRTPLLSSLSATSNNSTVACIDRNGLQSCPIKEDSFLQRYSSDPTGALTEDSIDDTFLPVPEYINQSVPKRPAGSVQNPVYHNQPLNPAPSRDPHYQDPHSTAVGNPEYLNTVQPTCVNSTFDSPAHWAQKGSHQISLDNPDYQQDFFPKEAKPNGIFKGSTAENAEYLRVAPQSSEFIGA
How it was run: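 72 h proliferation, Ba/F3 EGFR mutants (no IL3, puromycin-selected pools, EGFR confirmed by Western blot). Seeding of 400 L858R, 600 L858R/C797S and 800 exon 19del/FQEA cells per well. CellTiter-Glo used; controls were […] (high) and medium alone (low).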

EGFR (CUTO14 cells) = EGFR (CUTO14 cells) (Homo sapiens, UniProt P00533); test: Inhibitor activity on EGFR phosphorylation (pEGFR AlphaLISA, 2 h), CUTO14 cells
Excerpt: (§18) Example B. Inhibitor Activity on EGFR phosphorylation (pEGFR)
(§19) EGFR mutant Ba/F3 cells were generated by transduction with retrovirus containing vectors expressing EGFR L858R, EGFR exon 19del, EGFR L858R/C797S, EGFR exon 20 NPG Ins D770_N771, EGFR exon 20 ASV Ins V769_D770, or EGFR exon 20 SVD Ins D770_N771 genes along with a puromycin selection marker. Transduced cells are selected with puromycin for 7 days and are then be transferred into culture media without Interleukin 3 (IL3). Surviving cells are confirmed to express EGFR by Western blot and maintained as a pool. CUTO14 cells were obtained from Dr. Robert C. Doebele at the University of Colorado. The IC50 date are included in Table 6 and Table 7.
as §3
(§20) 1.2 Cells are diluted with culture medium to the desired density and 40 μL of cell suspension is added into each well of 384-well cell culture plate and the seeding density is 50K cells/well (Ba/F3) or 12.5K cells/well (CUTO14).
as §5, §6, §7
(§21) 2.3 Transfer 5 nL of diluted compound from compound source plate into the cell plate.
(§22) 2.4 After compound treatment for 2 hours, perform pEGFR detection by AlphaLISA for compound treatment plates as described in “Detection” section.
(§23) 3 Detection by pEGFR AlphaLISA (Perkin-Elmer)
(§24) 3.1 Plates are removed from incubators and equilibrated at room temperature for 10 minutes, and media was removed
(§25) 3.2 10 μL of lysis buffer is added and plates shaken at 600 rpm for 1 hr.
(§26) 3.3 Prepare acceptor mix just before use and dispense 5 μL of acceptor mix to all the wells. Shake 350 rpm for Ihr in the dark
(§27) 3.4 Prepare donor mix under low light conditions prior to use. Dispense 5 μL of donor mix to all the wells. Mix well on the shaker, seal and wrap in aluminum foil and incubate 1.5 hrs at room temperature in the dark
(§28) 3.5 Transfer 18.5 μL mixture to OptiPlate 384, and read using an Envision. The IC50 date were included in Table 6 and Table 7.

[5] = biological target: T6, EGFR L858R/C797S (Ba/F3 cells) (Homo sapiens, UniProt P00533, C797S/L858R); test: Inhibitor activity on EGFR-dependent cell growth (CellTiter-Glo, 72 h), Ba/F3 EGFR L858R/C797S; settings: read-out: BaF3 L858R/C797S IC50
T6 construct: expressed in transfected cells; host or cells: Ba/F3 (murine pro-B cells), retroviral transduction, puromycin selection, IL3-independent pool
Excerpt: as §1, §2, §3, §4, §5, §6, §7, §8, §9, §10, §11, §12, §13, §14, §15, §16

EGFR L858R (Ba/F3 cells) [6] = biological target: T1, EGFR L858R (Ba/F3 cells); test: Inhibitor activity on EGFR phosphorylation (pEGFR AlphaLISA, 2 h), Ba/F3 EGFR L858R
Excerpt: as §18, §19, §3, §20, §5, §6, §7, §21, §22, §23, §24, §25, §26, §27, §28

[7] = biological target: T2, EGFR exon 19del (Ba/F3 cells); test: Inhibitor activity on EGFR phosphorylation (pEGFR AlphaLISA, 2 h), Ba/F3 EGFR exon 19del; settings: read-out: Del19 IC50 (pEGFR)
Excerpt: as §18, §19, §3, §20, §5, §6, §7, §21, §22, §23, §24, §25, §26, §27, §28

[8] = biological target: T6, EGFR L858R/C797S (Ba/F3 cells); test: Inhibitor activity on EGFR phosphorylation (pEGFR AlphaLISA, 2 h), Ba/F3 EGFR L858R/C797S
Excerpt: as §18, §19, §3, §20, §5, §6, §7, §21, §22, §23, §24, §25, §26, §27, §28

[9] = biological target: T7, EGFR exon 20 ASV Ins V769_D770 (Ba/F3 cells) (Homo sapiens, UniProt P00533, INS769ASV); test: Inhibitor activity on EGFR-dependent cell growth (CellTiter-Glo, 72 h), Ba/F3 EGFR exon 20 ASV Ins; settings: read-out: BaF3 ASV IC50
T7 construct: expressed in transfected cells; host or cells: Ba/F3 (murine pro-B cells), retroviral transduction, puromycin selection, IL3-independent pool
T7 sequence (P00533 with tags, fused parts or gaps INS769ASV): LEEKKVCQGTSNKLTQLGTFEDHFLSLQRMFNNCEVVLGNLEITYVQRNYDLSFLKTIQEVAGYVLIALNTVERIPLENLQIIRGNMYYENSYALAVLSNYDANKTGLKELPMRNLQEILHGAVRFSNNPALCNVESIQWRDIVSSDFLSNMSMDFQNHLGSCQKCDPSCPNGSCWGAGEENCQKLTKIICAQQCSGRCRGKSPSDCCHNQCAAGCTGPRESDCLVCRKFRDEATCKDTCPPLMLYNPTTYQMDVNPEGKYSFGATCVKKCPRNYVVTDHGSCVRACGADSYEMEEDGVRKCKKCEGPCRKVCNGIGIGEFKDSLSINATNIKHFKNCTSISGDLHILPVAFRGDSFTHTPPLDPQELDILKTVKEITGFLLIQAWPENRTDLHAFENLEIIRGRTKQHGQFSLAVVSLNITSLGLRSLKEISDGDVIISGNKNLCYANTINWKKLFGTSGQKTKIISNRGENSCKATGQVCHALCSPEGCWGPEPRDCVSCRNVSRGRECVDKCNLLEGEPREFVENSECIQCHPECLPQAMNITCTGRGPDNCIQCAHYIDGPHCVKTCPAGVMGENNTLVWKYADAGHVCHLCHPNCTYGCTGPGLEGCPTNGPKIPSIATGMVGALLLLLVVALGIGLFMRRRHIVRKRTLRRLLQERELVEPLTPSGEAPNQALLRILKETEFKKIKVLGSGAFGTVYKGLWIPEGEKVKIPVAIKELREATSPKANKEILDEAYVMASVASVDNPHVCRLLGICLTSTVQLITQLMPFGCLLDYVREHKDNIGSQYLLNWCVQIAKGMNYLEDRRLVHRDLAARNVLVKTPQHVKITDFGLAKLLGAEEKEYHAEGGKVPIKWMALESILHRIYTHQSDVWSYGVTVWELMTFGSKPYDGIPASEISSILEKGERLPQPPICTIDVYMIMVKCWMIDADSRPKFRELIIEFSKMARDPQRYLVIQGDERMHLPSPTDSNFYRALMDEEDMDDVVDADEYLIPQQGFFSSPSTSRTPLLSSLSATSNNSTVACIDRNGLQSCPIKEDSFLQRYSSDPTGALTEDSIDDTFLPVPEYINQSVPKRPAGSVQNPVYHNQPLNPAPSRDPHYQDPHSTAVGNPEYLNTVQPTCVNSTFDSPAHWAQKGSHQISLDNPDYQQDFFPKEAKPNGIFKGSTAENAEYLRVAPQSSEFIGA
How it was run: as §17

[10] = biological target: T8, EGFR exon 20 SVD Ins D770_N771 (Ba/F3 cells) (Homo sapiens, UniProt P00533, INS770SVD); test: Inhibitor activity on EGFR-dependent cell growth (CellTiter-Glo, 72 h), Ba/F3 EGFR exon 20 SVD Ins; settings: read-out: BaF3 SVD IC50
T8 construct: expressed in transfected cells; host or cells: Ba/F3 (murine pro-B cells), retroviral transduction, puromycin selection, IL3-independent pool
How it was run: as §17

T1 sequence (P00533 25-1210 L858R): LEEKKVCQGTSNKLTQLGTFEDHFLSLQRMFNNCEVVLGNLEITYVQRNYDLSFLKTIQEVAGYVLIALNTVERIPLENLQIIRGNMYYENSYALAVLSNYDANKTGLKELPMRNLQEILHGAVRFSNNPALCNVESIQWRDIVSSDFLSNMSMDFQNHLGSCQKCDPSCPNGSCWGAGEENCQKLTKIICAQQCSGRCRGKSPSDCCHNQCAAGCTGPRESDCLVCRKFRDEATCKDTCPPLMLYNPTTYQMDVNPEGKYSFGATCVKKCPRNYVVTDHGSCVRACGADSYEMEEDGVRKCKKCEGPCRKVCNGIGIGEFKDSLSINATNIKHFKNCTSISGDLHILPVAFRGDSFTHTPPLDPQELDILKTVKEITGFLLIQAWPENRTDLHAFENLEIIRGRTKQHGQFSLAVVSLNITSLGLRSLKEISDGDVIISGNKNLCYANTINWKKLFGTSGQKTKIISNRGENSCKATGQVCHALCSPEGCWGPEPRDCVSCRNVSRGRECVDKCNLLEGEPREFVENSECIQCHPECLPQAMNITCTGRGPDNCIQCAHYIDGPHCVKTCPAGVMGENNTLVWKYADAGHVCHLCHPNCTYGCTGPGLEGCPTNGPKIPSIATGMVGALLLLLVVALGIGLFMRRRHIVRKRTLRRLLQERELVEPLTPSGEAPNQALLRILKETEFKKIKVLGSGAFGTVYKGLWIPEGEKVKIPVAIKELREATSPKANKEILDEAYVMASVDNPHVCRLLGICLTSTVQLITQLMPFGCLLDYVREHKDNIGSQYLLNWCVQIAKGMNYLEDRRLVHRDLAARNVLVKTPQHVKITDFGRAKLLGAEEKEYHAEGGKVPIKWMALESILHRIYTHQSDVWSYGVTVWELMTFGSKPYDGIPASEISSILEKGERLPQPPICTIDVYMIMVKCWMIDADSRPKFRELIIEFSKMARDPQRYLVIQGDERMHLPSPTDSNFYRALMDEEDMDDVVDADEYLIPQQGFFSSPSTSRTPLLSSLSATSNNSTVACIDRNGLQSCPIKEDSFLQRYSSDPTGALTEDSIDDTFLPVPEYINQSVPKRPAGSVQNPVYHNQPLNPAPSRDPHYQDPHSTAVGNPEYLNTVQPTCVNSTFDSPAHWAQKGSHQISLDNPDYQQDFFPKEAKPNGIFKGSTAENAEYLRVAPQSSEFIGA

Work on `COc1c(Cl)cccc1Nc1c(-c2ccncc2F)[nH]c2c1C(=O)NC[C@H]2C[C@@H]1COCCO1` (single isomer, unassigned) [Compound 483] yielded an IC50 (EGFR L858R (Ba/F3 cells) [1]) of under 0.1 µM, an IC50 [2] of under 0.1 µM and an IC50 (EGFR WT (Ba/F3 cells)) of over 1 µM. For the same molecule, the IC50 [3] was under 0.1 µM, the IC50 [4] was 0.1 to 1 µM and the IC50 (EGFR (CUTO14 cells)) was under 0.1 µM.
`COCC[C@H]1CNC(=O)c2c1[nH]c(-c1ccncn1)c2Nc1cccc(Cl)c1OC` [445b] was tested, and the IC50 (EGFR L858R (Ba/F3 cells) [1]) was under 0.1 µM, the IC50 [2] was under 0.1 µM and the IC50 [5] was under 0.1 µM. For the same molecule, the IC50 (EGFR L858R (Ba/F3 cells) [6]) was under 0.1 µM, the IC50 [7] was under 0.1 µM and the IC50 [8] was under 0.1 µM. For the same molecule, the IC50 (EGFR WT (Ba/F3 cells)) was over 1 µM, the IC50 [9] was 0.1 to 1 µM and the IC50 [10] was 0.1 to 1 µM. The IC50 [4] was 0.1 to 1 µM.
Work on `COCC[C@H]1CNC(=O)c2c1[nH]c(-c1ccnc(C)n1)c2Nc1cccc(F)c1OC` [453b] yielded an IC50 (EGFR L858R (Ba/F3 cells) [1]) of under 0.1 µM, an IC50 [2] of under 0.1 µM and an IC50 [5] of under 0.1 µM. The IC50 [8] was under 0.1 µM, the IC50 (EGFR WT (Ba/F3 cells)) was 0.1 to 1 µM and the IC50 [3] was under 0.1 µM. It also gave an IC50 [9] of under 0.1 µM, an IC50 [10] of under 0.1 µM and an IC50 (EGFR (CUTO14 cells)) of under 0.1 µM.
`COc1c(Cl)cccc1Nc1c(-c2ccnc(N)n2)[nH]c2c1C(=O)NC[C@@H]2C[C@H]1COCCO1` [Compound 531, (7S)-2-(2-aminopyrimidin-4-yl)-3-[(3-chloro-2-methoxyphenyl)amino]-7-[(2S)-1,4-dioxan-2-ylmethyl]-1H,5H,6H,7H-pyrrolo[3,2-c]pyridin-4-one] was tested, and the IC50 (EGFR L858R (Ba/F3 cells) [1]) was under 0.1 µM, the IC50 [2] was under 0.1 µM and the IC50 (EGFR WT (Ba/F3 cells)) was 0.1 to 1 µM. For the same molecule, the IC50 [3] was under 0.1 µM, the IC50 [9] was under 0.1 µM and the IC50 [10] was under 0.1 µM. The IC50 [4] was under 0.1 µM and the IC50 (EGFR (CUTO14 cells)) was under 0.1 µM.
`C=CC(=O)N1CCC2(CC1)CNC(=O)c1c2[nH]c(-c2ccncc2F)c1Nc1cc(F)cc(Cl)c1OC` [Compound 559, 3′-[(3-chloro-5-fluoro-2-methoxyphenyl)amino]-2′-(3-fluoropyridin-4-yl)-1-(prop-2-enoyl)-5′,6′-dihydro-1′H-spiro[piperidine-4,7′-pyrrolo[3,2-c]pyridin]-4′-one] was tested, and the IC50 (EGFR L858R (Ba/F3 cells) [1]) was under 0.1 µM, the IC50 [2] was under 0.1 µM and the IC50 (EGFR WT (Ba/F3 cells)) was under 0.1 µM. The IC50 [3] was under 0.1 µM, the IC50 [9] was under 0.1 µM and the IC50 [10] was under 0.1 µM. It also gave an IC50 [4] of under 0.1 µM and an IC50 (EGFR (CUTO14 cells)) of under 0.1 µM.

From patent US20240101576A1, “HETEROCYCLIC INHIBITORS OF EGFR AND/OR HER2, FOR USE IN THE TREATMENT OF CANCER” (Scorpion Therapeutics, Inc., priority 2020, published 2024)
